SMILES strings stand for the structures. Values joined by “and” are separate entries in the source; they are usually repeats but may differ in a detail not shown here. Equal entries are not always repeated.

Series [1] can be described thus: Urine levels and urinary recovery after single oral administration. The class given is in vivo, male Wistar rats. The protocol: (§1) Compound Va and VIIa (Xa═NH4) were administered by single oral route (gavage) three male Wistar (SPF-bred) rats at dose levels of about 70 μmol/kg of dry ammonium salt, corresponding to the 21.2 mg/kg for compound Va and 19.9 mg/kg for compound VIIa. Blood sampling occurred 15 minutes before administration, at 4, 8, 12, 24, 72 and 168 hours after administration.
(§2) Compound XIII was dosed by single oral administration to 3 male Wistar rats at the dose of 73 umol/kg corresponding to 26.06 mg/kg. Blood sampling occurred at 15 minutes before administration, at 4, 8, 12, 24, 72 and 168 hours after administration. Urine samples were obtained at time intervals 0-12, 12-24, 24-72, 72-96, 96-168 hours after dosing. Plasma and urine concentration of XIII were determined by a validated analytical method.

Series [2] is described as follows: Thermogravimetric analysis (TGA) in air. As to conditions: ammonium salt. The class given is physicochemical. The protocol:
(§3) An organic solution composed of (D) (127 mmol; 30.6 g) and 200 ml of CH2Cl2 was introduced in a 2-necked glass round-bottomed flask equipped with a magnetic stirrer, a tap water refrigerating column and a bubbling tube. The mixture was cooled to 0° C. with vigorous stirring and a large excess of gaseous NH3 was bubbled through the organic mixture. Bubbling of NH3 (g) was pursued until completion of the precipitation of the ammonium salt. Crude mixture was filtered; solid was dried in a vacuum oven at 40° C. under reduced pressure (20 mmHg) for 2 hours. A flaky white solid is obtained. Isolated yield of compound (E) (VIIa, with Xa being NH4)=100%. […] FIG. 2 depicts the ^19F-NMR spectrum of compound (E).
Perfluorinated ester (G) was hydrolyzed in water at 0° C., yielding corresponding acid with quantitative yield. Evolved HF was neutralized with 1.5 mol eq. of KF, yielding solid KHF2, which was separated by filtration. After removal of solvent, the free acid (b.p.=160° C.) and CF3COOH (b.p.=72° C.) were separated by fractional distillation. Gaseous NH3 was then bubbled in a CH2Cl2 (200 ml) solution of the acid; ammonium salt (H) (formula Va, with Xa═NH4) was then recovered with a yield of 75% moles (with respect to alcohol intermediate (B)). […] FIG. 3 depicts the ^19F-NMR spectrum recorded on compound (H).
Acid (XIII, Xa═H) was solubilised in CH2Cl2 (200 ml); gaseous NH3 was then bubbled in said solution; ammonium salt (XIII, Xa═NH4) was then recovered with a yield of 75% moles (with respect to alcohol intermediate (L)). […] FIG. 7 depicts the ^19F-NMR spectrum recorded on ammonium salt (XIII, Xa═NH4).

The nature of a further series: Oral acute toxicity. The class given is in vivo. The protocol: as §3
Series [3] is described as follows: Plasma levels and pharmacokinetic parameters after single oral (gavage) administration. The class given is in vivo, male Wistar (SPF-bred) rats. The conditions noted are these: for elimination from blood compared with APFO: after single oral administration, C/Cmax versus time (FIG. 5); for time of maximal plasma concentration (tmax): single oral, Va, VIIa about 70 μmol/kg, XIII 73 umol/kg. The protocol:
as §1, §2
Results of plasma concentrations for compound VIIa (Xa═NH4), Va (Xa═NH4), XIII (Xa═NH4) and APFO as a function of time are sketched in FIG. 5. This graph depicts ratio C/Cmax for compound Va (Xa═NH4) (●) compound VIIa (Xa═NH4) (◯), for compound XIII (Xa═NH4) (□) and APFO (▴), with C=instantaneous plasma concentration and Cmax=maximum plasma concentration, as a function of time (in hours).

Another series is described as follows: pKa of acid (D). The class given is physicochemical. As to conditions: free acid (D). The protocol: An aqueous solution composed of KMnO4 (238 mmol, 37.6 g), NaOH (238 mmol, 9.52 g) in 200 ml of distilled H2O was introduced in a 3-necked glass round-bottomed flask equipped with a magnetic stirrer, a dropping funnel, a thermometer and a tap water refrigerating column. The flask was heated to 80° C. with vigorous stirring and then 238 mmol; 50 g of product obtained from step 1a was slowly dropped into the basic oxidizing solution. Immediate exothermic release (+15° C.) was observed together with formation of MnO2 precipitate. After completion of the addition, solution was further stirred at 80° C. for 40 min. Crude reaction mixture was then cooled to room temperature, filtered, acidified to pH=1 with concentrated HCl (37% w/w) and extracted several times with CH2Cl2. The organic layer was dried over MgSO4, filtered and then the CH2Cl2 is evaporated.

[4] abbreviates: plasma, male rats, single oral gavage, about 70 μmol/kg, individual values of the three animals, listed as VIIa (Xa = NH4).

The Cmax is the highest concentration seen after dosing. `N.O=C(O)C1(F)OC(F)(F)OC1OC(F)(F)F` (stereo not shown) [Compound VIIa]: in series [1] (rats, single oral administration), the “urinary recovery at 168 hours after treatment” value is reported as 97-107%. The urinary half lives in series [1] (rats, single oral administration, individual values) is 9 h and 13 h and 10 h. In series [2], the “TGA temperature at weight decrease of 10%” value was found to be 148 °C and the “TGA temperature at weight decrease of 50%” value turned out to be 182 °C. In the series “Oral acute toxicity”, the LD50 result was “exceed 2000 mg/kg”. Further, the “elimination from blood compared with APFO” value in series [3] was “significantly faster elimination”. The tmax in series [3] (plasma, male rats, single oral gavage, about 70 μmol/kg, individual values of the three animals) is 4, 4, 4 h. In addition, in series [3] (setting [4]), the AUC0-t is 135.608 µg·h/mL and 47.07 µg·h/mL and 114.562 µg·h/mL; the AUCinf. was 47.137 µg·h/mL and 115.916 µg·h/mL and 137.788 µg·h/mL; the Cmax is 11258 ng/mL and 14767 ng/mL and 18878 ng/mL; the “t1/2, z” value is 4.8 h and 8.0 h and 8.9 h. Further, the “reliable plasma half life” value in series [3] (single oral gavage, about 70 μmol/kg, male Wistar rats) lay in the range of 8.0 to 8.9 h. Moreover, in series [3] (male Wistar rats), the “time of maximal plasma concentration (tmax)” value was 4 h.

The pKa is the negative logarithm of the acid dissociation constant. `O=C(O)C1(F)OC(F)(F)OC1OC(F)(F)F` (stereo not shown) [(D)]: the pKa in “pKa of acid (D)” turned out to be 2.8.

`N.O=C(O)C(F)(F)OC1(F)OC(F)(F)OC1(F)OC(F)(F)F` (stereo not shown) [Compound XIII]: the “mean urinary recovery in 168 hours after treatment” value in series [1] (3 male Wistar rats, single oral, 73 umol/kg (26.06 mg/kg)) is “around 82%”. For the same molecule, in series [2], the “TGA temperature at weight decrease of 10%” value is 159 °C and the “TGA temperature at weight decrease of 50%” value is 191 °C. Further, in series [3], the “elimination from blood compared with APFO” value is given as “significantly faster elimination”. Besides, the “time of maximal plasma concentration (tmax)” value in series [3] (male Wistar rats) was determined as 4 h.

The values above are taken from US9776983B2, “Method for manufacturing fluoropolymers” (SOLVAY SOLEXIS S.p.A., priority 2008, dated 2017).
